Tests used:
Assay type in all cases: in vivo
Male C57Bl/6J mice [1] = assay: Marble burying test; design: key: −: No reduction in number of marbles buried; +: Significant reduction in number of marbles buried (P < 0.05 vs vehicle)
Summary of the method: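 Mice (n=10/group) dosed i.p. or p.o. with compound or water 30 min before a 30-min session in cages with twenty marbles; marbles at least two-thirds covered scored buried. Distance traveled tracked by overhead camera for locomotion; fewer marbles buried than vehicle indicates anxiolytic-like effect.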

Male C57Bl/6J mice [2] = assay: Amphetamine induced hyperlocomotion assay; design: key: #: Significant increase in total distance traveled (P < 0.05 vs vehicle + AMPH group); −: No change in total distance traveled; Significant decrease in total distance traveled (P < 0.05 vs vehicle + AMPH group)
Procedure: Psychostimulants such as amphetamine (AMPH) are frequently used to induce or mimic a manic-like or psychotic-like state. AMPH administration to rodents increases horizontal locomotion, vertical rearing and repetitive stereotyped behaviors, and typical antipsychotic drugs, such as haloperidol, can reduce these behaviors. The antimanic/antipsychotic-like effects of test compounds were evaluated in male C57Bl/6J mice from Jackson Laboratories Mice were acclimatized to the experimental room for at least 1 hour prior to testing. The mice (n=10 per group) were administered vehicle or test compound orally by gavage (10 mL/kg injection volume) and placed individually in the novel open field (OF) chambers (Med Associates) for 30 minutes of baseline activity measurement. Mice were then injected with either water or AMPH (4 mg/kg, i.p., 10 mL/kg) and placed back in the same individual OF chambers for a 60-minute testing session during which the effects of test compounds on stimulant-induced behaviors (total distance traveled, rearing and stereotypy) were measured. A reduction in total distance traveled relative to the vehicle+AMPH condition indicates an antimanic/antipsychotic drug-like response.

Male C57Bl/6J mice [3] = assay: Prepulse inhibition of startle (PPI); design: key: −: No change in PPI; +: Significant increase in PPI at one pre-pulse intensity (P < 0.05 vs vehicle); ++: Significant increase in PPI at two pre-pulse intensities (P < 0.05 vs vehicle); +++: Significant increase in PPI at three pre-pulse intensities (P < 0.05 vs vehicle)
Source text: The acoustic startle is an unconditioned reflex response to an external auditory stimulus. Prepulse inhibition of startle (PPI) refers to the reduction in the startle response caused by the presentation of a low-intensity auditory stimulus prior to the startle stimulus. The PPI paradigm is used for the study of schizophrenia and antipsychotic action due to the similarities between the results from human and rodent studies. PPI has been used as a tool for the assessment of deficiencies in sensory-motor gating observed in schizophrenia and to screen for potential antipsychotic drugs. Various psychotomimetic drugs, such as phencyclidine (PCP), can disrupt PPI. In mice, antipsychotic drugs such as haloperidol can increase PPI and clozapine can reverse the disruption of PPI induced by PCP.
Male C57Bl/6J mice from Jackson Laboratories were placed in the PPI chambers (Med Associates) for a 5 min session of white noise (70 dB) habituation. After the habituation period, the test session was initiated. The session started with a habituation block of 6 presentations of the startle stimulus alone, followed by 10 PPI blocks, each of which consisted of 6 different types of trials. Trial types were: ‘null’ (no stimuli), ‘startle’ (120 dB), ‘startle plus prepulse’ (4, 8, and 12 dB over background noise, i.e., 74, 78, or 82 dB) and ‘prepulse’ (82 dB). Trial types were presented in a random order within each block. Each trial started with a 50 ms stimulus-free period during which baseline movements were recorded. This was followed by a subsequent 20 ms period during which the prepulse stimulus was presented and responses to the prepulse measured. After a further 100 ms period, the startle stimulus was presented for 40 ms and responses recorded for 100 ms from startle onset. Responses were sampled every ms. The inter-trial interval was variable with an average of 15 s (range from 10 to 20 s). In ‘startle’ trials, the basic auditory startle response was measured. The basic startle response was calculated as the mean startle response of all ‘startle’ trials (i.e., excluding the first habituation block). In ‘startle plus prepulse’ trials, the degree of inhibition of the normal startle was calculated and expressed as a percentage of the basic startle response.
Mice were treated with vehicle or test compound orally by gavage, or haloperidol (1 mg/kg, i.p.), in 10 mL/kg injection volumes, 30 min prior to PPI test. The PPI enclosures were cleaned following each test. An increase in the percent PPI relative to the vehicle condition indicates an antipsychotic drug-like response.

SMILES	Marbles Buried (Male C57Bl/6J mice [1]; 3 mg/kg (p.o.))	Marbles Buried (Male C57Bl/6J mice [1]; 10 mg/kg (p.o.))	Marbles Buried (Male C57Bl/6J mice [1]; 30 mg/kg (p.o.))	Total Distance Traveled (Male C57Bl/6J mice [2]; 3 mg/kg PO Compound + AMPH)	Total Distance Traveled (Male C57Bl/6J mice [2]; 10 mg/kg PO Compound + AMPH)	Total Distance Traveled (Male C57Bl/6J mice [2]; 30 mg/kg PO Compound + AMPH)	Effect on Pre-Pulse Inhibition (PPI) (Male C57Bl/6J mice [3]; 3 mg/kg PO)	Effect on Pre-Pulse Inhibition (PPI) (Male C57Bl/6J mice [3]; 10 mg/kg PO)	Effect on Pre-Pulse Inhibition (PPI) (Male C57Bl/6J mice [3]; 30 mg/kg PO)
N[C@@H]1COCc2ccccc21 (single isomer, unassigned) [Example 111]	−	+	+	#	−	+	−	−	+++
N[C@H]1COCc2ccc(F)cc21 (single isomer, unassigned) [Example 114]	+	+	+		−	+		−	−
N[C@@H]1COCc2ccc3ccccc3c21 (single isomer, unassigned) [Example 117]	+	+	+		−	+		−	+++
N[C@H]1COCc2ccc3ccccc3c21 (single isomer, unassigned) [Example 118]		+	+		−	+		−	−
Cc1ccc2c(c1)[C@H](N)COC2 [Example 123]		+	+		−	+		−	−
Cc1ccc2c(c1)[C@@H](N)COC2 [Example 124]		+	+		−	+		−	−
